Results taken from patent US8501805B2, “Substituted alpha-L-bicyclic nucleosides” (Isis Pharmaceuticals, Inc., priority 2008, dated 2013).
[αh] = substituted alpha-L-bicyclic nucleoside, publication subscript αh; [αj] = substituted alpha-L-bicyclic nucleoside, publication subscript αj; [αl] = substituted alpha-L-bicyclic nucleoside, publication subscript αl; [αm] = substituted alpha-L-bicyclic nucleoside, publication subscript αm; [αg] = code of the source, not defined here; d = 2'-deoxy (DNA)

Assay: 12mer Tm study
Format: binding
Settings: for Tm (° C.): all linkages phosphodiester; for ΔTm/mod (° C.): change in Tm per modification
Description: All internucleoside linkages are phosphodiester and all nucleosides not followed by a subscript are 2′-deoxyribonucleosides. The nucleosides followed by a subscript are defined below.

Row | Substance | Tm (° C.) | ΔTm/mod (° C.)
1 | 07/438704: 12mer GCGTTUTTTGCT, all 2′-deoxyribonucleosides, all linkages phosphodiester (DNA, all phosphodiester, methylation of C not given here) [reference compound] | 46.7 °C | +0.0 °C
2 | 07/438711: 12mer GCGTTUαlTTTGCT, all linkages phosphodiester (GCGTTUTTTGCT; sugars from the 5' end d5 [αl]1 d6, all phosphodiester, methylation of C not given here) [reference compound] | 50.2 °C | +4.6 °C
3 | 07/449244: 12mer GCGTTUαjTTTGCT, all linkages phosphodiester (GCGTTUTTTGCT; sugars from the 5' end d5 [αj]1 d6, all phosphodiester, methylation of C not given here) | 46.7 °C | +1.1 °C
4 | 07/449245: 12mer GCGTTUαjTαjTTGCT, all linkages phosphodiester (GCGTTUTTTGCT; sugars from the 5' end d5 [αj]2 d5, all phosphodiester, methylation of C not given here) | 47.1 °C | +1.0 °C
5 | 07/449246: 12mer GCGTTUαhTTTGCT, all linkages phosphodiester (GCGTTUTTTGCT; sugars from the 5' end d5 [αh]1 d6, all phosphodiester, methylation of C not given here) | 49.0 °C | +3.4 °C
6 | 07/449247: 12mer GCGTTUαhTαhTTGCT, all linkages phosphodiester (GCGTTUTTTGCT; sugars from the 5' end d5 [αh]2 d5, all phosphodiester, methylation of C not given here) | 53.7 °C | +4.1 °C
7 | 07/454306: 12mer GCGTTUαlTαlTTGCT, all linkages phosphodiester (GCGTTUTTTGCT; sugars from the 5' end d5 [αl]2 d5, all phosphodiester, methylation of C not given here) [reference compound] | 45.6 °C | +4.6 °C
8 | 07/454307: 12mer GCGTTUαmTTTGCT, all linkages phosphodiester (GCGTTUTTTGCT; sugars from the 5' end d5 [αm]1 d6, all phosphodiester, methylation of C not given here) | 51.3 °C | +5.5 °C
9 | 07/454308: 12mer GCGTTUαmTαmTTGCT, all linkages phosphodiester (GCGTTUTTTGCT; sugars from the 5' end d5 [αm]2 d5, all phosphodiester, methylation of C not given here) | 55.2 °C | +4.8 °C
10 | 07/454309: 12mer GCGTTUαgTTTGCT, all linkages phosphodiester (GCGTTUTTTGCT; sugars from the 5' end d5 [αg]1 d6, all phosphodiester, methylation of C not given here) | 49.7 °C | +4.2 °C
11 | 07/454310: 12mer GCGTTUαgTαgTTGCT, all linkages phosphodiester (GCGTTUTTTGCT; sugars from the 5' end d5 [αg]2 d5, all phosphodiester, methylation of C not given here) | 53.6 °C | +4.2 °C
